The values that follow come from a melting point compilation (Tetko et al.; mined from patent text by program, amines drawn as free bases though some values may be those of a salt).

Each structure is given as a SMILES string. Where only a bound is given, the exact number is not on record here.

For orientation: melting point means the temperature, or range, at which the solid turns liquid. In turn, `CC1(C(=O)NN)C(=O)Nc2cc3[nH]c(-c4ccncc4)nc3cc21` (stereo not drawn) registered a melting point of more than 300 °C.

In turn, `Oc1ccc(C2(c3ccc(O)cc3)c3ccccc3C(c3ccc(O)cc3)(c3ccc(O)cc3)c3ccccc32)cc1` came in with a melting point of 208 to 209 °C.

In turn, `CCN1C(=O)C(C(=O)Nc2cccc(S(C)=O)c2)c2cc3c(cc21)CCO3` (stereo not drawn) registered a melting point of 180 to 185 °C.

Regarding `COc1cc2nc(N3CCN(c4ccnc(Oc5ccccc5)n4)CC3)nc(N)c2cc1OC`, the melting point fell in the range of 253 to 254 °C.

The compound `COC(=O)C(Oc1cc(OCc2ccsc2)ccc1C#N)c1ccccc1` (racemic) returned a melting point of 112 to 114 °C.

In turn, `Cn1c(C(F)(F)F)cc(F)c(-c2ccc(Cl)cc2)c1=O` gave a melting point of 120 to 122 °C.

In turn, `CC1(C)C2CCC1(CS(=O)(=O)N1CCC3(C=Cc4ccccc43)CC1)C(O)(CC(=O)O)C2` (stereo not drawn) came in with a melting point of 138 to 140 °C.

In the case of `O=S(=O)(CCCN1CCN(c2ncc(F)cn2)CC1)c1ccc(F)cc1`, the melting point was in the range of 132 to 134 °C.

In turn, `O=C1COc2ccc(NC(=O)C(=O)N3CCC(Cc4ccccc4)CC3)cc2N1` returned a melting point of 186 to 187 °C.

Compound `CCOC(=O)N1CCN(C2c3ccccc3C=Cc3ccccc32)CC1` showed a melting point of 159 to 160 °C.

Regarding `CCc1nc(N)nc(N)c1-c1ccccc1Cl`, the melting point was 197 to 198 °C.

Turning to `Nc1sc2c(c1C(=O)c1ccc(I)cc1)CCN(C(=O)Nc1ccccc1)C2`, the melting point lay in the range of 89 to 90 °C.

In turn, `Cc1nnc2n1-c1ccccc1C(c1ccc(Cl)cc1)=NC2NN(C(=O)NN)c1ccccc1` (stereo not drawn) gave a melting point of 175 to 177 °C.

Compound `CCOC(=O)c1ccc(/C=C(\CCCc2ccc(OC)cc2)Cn2ccnc2)cc1` showed a melting point of 92 to 94 °C.

Regarding `Cn1ncc2c1-c1c(Cc3ccccc3)sc(C(N)=O)c1CC2`, the melting point fell in the range of 96 to 97 °C.

With `Fc1ccc2[nH]cc(CC3CCNCC3)c2c1`, the melting point lay within 155 to 157 °C.

Consider `NC(=S)NC[C@H]1CN(c2ccc(-n3cncn3)cc2)C(=O)O1`, for which the melting point is 214 to 215 °C.

For the compound `COc1ccc(C(=O)Nc2ccc3ccc(Oc4ccccc4F)nc3n2)cc1`, the melting point is 208 °C.

`COC(=O)C1=C(C)NC(C)=C(C(=O)OC)C1c1ccccc1COC(C)=O` returned a melting point of 149 to 151 °C.

Compound `O=C(Nc1ccc(S(=O)(=O)Cl)cc1)c1ccccc1` registered a melting point of 176 to 178 °C.

On to `O=Cc1c[nH]c2ccc(Nc3ncnc4cc(-c5ccccc5)sc34)cc12`, for which the melting point fell in the range of 174 to 175 °C.

The compound `CCCN(CCC)C(C)C(=O)Nc1cccc2c1C(=O)c1c(NC(=O)C(C)N(CCC)CCC)cccc1C2=O` (stereo not drawn) came in with a melting point of 129 to 130 °C.

As for `CC(C)(C)C(=O)Nc1ccc2c(c1)ncn1c(=O)c(C(=O)O)cnc21`, the melting point fell in the range of 252 to 256 °C.

As for `OCc1cc(O)ccc1/C=C/c1ccc(O)cc1`, the melting point fell in the range of 223 to 225 °C.

With `CC1=C(C(=O)OCCCN(C)C)C(c2ccccc2)C2=C(COC2=O)N1` (stereo not drawn), the melting point lay within 112 to 115 °C.

For the compound `CN1CCN(c2cc(Cl)cc3c2c(=O)n(CCCc2ccccc2)c(=O)n3Cc2ccccc2)CC1`, the melting point lay in the range of 55 to 63 °C.

In turn, `COCC1CN(c2ccc3ccc(O)cc3c2)C(=O)O1` (stereo not drawn) gave a melting point of 155 to 157 °C.

The compound `O=C(Nc1ccc(Br)cn1)[NH+]([O-])C(=O)c1c(Cl)cccc1Cl` (stereo not drawn) had a melting point of 230 to 235 °C.

Consider `COC(=O)c1ccc(OC)c(Oc2ccccc2)c1`, for which the melting point lay in the range of 61 to 63 °C.

`O=[N+]([O-])c1ccc(OCCN2CC=C(c3ccc(F)cc3)CC2)cc1` displayed a melting point of 104 to 107 °C.

On to `CCOC(=O)NNc1ccc(N(C)CC(C)O)nn1` (stereo not drawn), for which the melting point lay within 150 to 152 °C.

`COC(=O)Oc1ccc(OC)cc1` had a melting point of 33 to 34 °C.

Compound `O=c1c2c(Cc3ccc(C(F)(F)F)cc3)n[nH]c2c2cccnc2n1-c1cccc(C(F)(F)F)c1` registered a melting point of 145 to 148 °C.

The compound `CCSC1=NCC(=O)N1c1ccc(C)c(Cl)c1` registered a melting point of 133 to 135 °C.

Compound `N#Cc1c(N2CCN(C(=O)c3cccs3)CC2)c2ccccc2n(Cc2ccc(F)cc2)c1=O` showed a melting point of 258 °C.

The compound `O=C(Nc1cccc(C(=O)O)c1)NC1C(=O)N(CC(=O)N2CCCC2)c2ccccc2N(C2CCCCC2)C1=O` (stereo not drawn) returned a melting point of 275 to 276 °C.

As for `O=C1NC(=O)C(=Cc2ccc(N3CCC(NC[C@H](O)COc4cccc5[nH]c(=O)[nH]c45)CC3)c(F)c2)S1`, the melting point lay within 162 to 164 °C.

`O=S1(=O)N=CN(C2CC2)c2cc(Br)cc(C(F)(F)F)c21` gave a melting point of 253 to 254 °C.

Compound `CS(=O)(=O)c1ccc2c(c1)C(=O)Cc1ccccc1O2` came in with a melting point of 105 to 106 °C.

In turn, `CC(=O)OCC1CCc2cc3ccccc3n2CC1` (stereo not drawn) yielded a melting point of 77 to 79 °C.

Take `COc1ccc(Cc2nc3cnc4cc(-c5ccccc5)ccc4c3n2CCOc2ccccc2)cc1`: the melting point was in the range of 205 to 206 °C.

Regarding `CCN[C@@H]1CN(C(=O)c2nn(C)c3ccccc23)C[C@@H]1C` (relative stereo), the melting point lay in the range of 62 to 64 °C.

As to `c1ccn(Nc2ccncc2)c1`, the melting point is 150 °C.

For `COc1ccc(C(CN2CCN(Cc3ccccc3)C2=O)NC(C)=O)cc1OC` (stereo not drawn), the melting point amounted to 156 °C.

Compound `CCOC(CNC(=S)Nc1nccs1)OCC` came in with a melting point of 118 to 119 °C.

`O=[N+]([O-])c1ccccc1CCN1CCN(c2ccccc2)CC1` returned a melting point of 76 °C.

With `CCCCN(Cc1ccccc1)C(=O)Nc1cccc(Cl)c1`, the melting point was in the range of 69 to 70 °C.

As to `CC(C(=O)NCCO)c1ccc(C(=O)c2cccs2)cc1` (stereo not drawn), the melting point is 87.1 °C.

`c1cc2[nH]ncc2cc1OC1CCCCC1`: the melting point lay within 144 to 146 °C.

Compound `Cn1c(C(=O)O)ccc1C(=O)c1ccccc1` registered a melting point of 178 to 181 °C.

Turning to `Cc1nc2cccc(C)c2c(=O)[nH]1`, the melting point fell in the range of 255 to 257 °C.

`CC(C)Cn1c(C(=O)O)c(-c2ccc(Cl)cc2)c2cc(OCc3ccccc3)ccc2c1=O` gave a melting point of 200 to 201 °C.

Consider `O=S(=O)(Cc1ccccc1)c1cccc2c1ccn2-c1ccnc(N[C@H]2CC[C@H](O)CC2)n1`, for which the melting point lay within 132 to 134 °C.

`CCCCCCCCCCCCCCCCCCNCP(=O)(O)O` had a melting point of 108 to 112 °C.

Take `CCOC(=O)c1nn(-c2ccccc2Br)c(=O)c2c(N)scc12`: the melting point lay in the range of 203 to 205 °C.

Regarding `N#Cc1cc(Cc2ccc(Cl)cc2)ccc1N`, the melting point was 91.5 to 93 °C.

`CC(C)c1nc(C(C)C)c(CSc2ccc(O)cc2)c(-c2ccc(F)cc2)c1CO` showed a melting point of 178 to 179 °C.

Consider `CCOCn1c(-c2sc(Cl)c(Cl)c2Cl)c(C#N)c(Br)c1C(F)(F)F`, for which the melting point is 85 to 87 °C.

In the case of `COC(=O)c1cc2ccc(C(=O)NC(CO[Si](C)(C)C(C)(C)C)CO[Si](C)(C)C(C)(C)C)cc2[nH]1`, the melting point was 127 to 129 °C.

Turning to `COc1ccnc(CSc2nc3ccc(F)cc3[nH]2)c1C`, the melting point is 128 °C.

With `c1cncc(NCCCOc2cccc(CN3CCCCC3)c2)c1`, the melting point was in the range of 120 to 122 °C.

`CCCCOC(=O)c1ccc2ccc(C=O)nc2c1OC(=O)C(C)(C)C` came in with a melting point of 108 °C.

Compound `CCN1C(=O)c2cccc(C)c2Oc2ncccc21` had a melting point of 74 to 76 °C.

In the case of `CCOC(=O)c1c(CC(=O)O)n(-c2ccc(OC(C)C)cc2)c2ccc(Oc3ccc(CCl)cn3)cc12`, the melting point was in the range of 153 to 155 °C.

With `O=c1c2cc(Cl)ccc2ccc2ncccc12`, the melting point was 140 to 142 °C.

In the case of `CN1CCc2ccccc2C1=NNC(=O)Nc1ccc(C(F)(F)F)cc1`, the melting point was 101 to 104 °C.

Compound `COc1cc2c(cc1C(O)COc1ccc(C(=O)O)c(O)c1)C(C)(C)CCC2(C)C` (stereo not drawn) came in with a melting point of 178 to 179 °C.

`CC(C)c1ccc(-n2nnc(-c3ccc(O)cc3)n2)cc1` gave a melting point of 158 to 160 °C.

With `COCC(C)(C)Cc1cc(N(C)C)ccn1`, the melting point lay in the range of 56 to 58 °C.

The compound `CCNc1ccc2ccccc2c1-c1c(P(c2ccccc2)c2ccccc2)ccc2ccccc12` came in with a melting point of 83.1 °C.

`CCON=C(CC)C1=C(O)CC(c2ccc3c(c2)N(CC#N)C(=O)CO3)CC1=O` (stereo not drawn) registered a melting point of 156 to 159 °C.

`Oc1ccc(C(c2ccc(O)cc2)(c2ccc(I)cc2)C(F)(F)F)cc1` showed a melting point of 187 to 189 °C.

As for `COc1cn(-c2cccc(Br)c2F)nc(-c2ccnn2-c2ccccc2)c1=O`, the melting point lay within 186 to 191 °C.

As to `COc1ccc2ccccc2c1-c1c(C)c2c(c(C)c1P(=O)(c1ccccc1)c1ccccc1)CCC2`, the melting point fell in the range of 70.8 to 72.1 °C.

In turn, `N#CCCCN1CCN(c2nc3nccc(-c4ccncc4)n3n2)CC1` registered a melting point of 147 to 148 °C.

`O=C(C=Cc1cccc(Cl)c1)c1ccccc1O` registered a melting point of 108 °C.

The compound `CC1(C)COc2ccc(C#N)cc21` had a melting point of 70 to 71 °C.

In the case of `CC(=O)Nc1c([N+](=O)[O-])cc(Br)c2c1CN(C(C)=O)CC2`, the melting point lay within 173 to 175 °C.

For `CN(CCO)Cc1cc(C(=O)c2cccs2)cc(C(C)(C)C)c1O`, the melting point lay in the range of 98 to 100 °C.

Regarding `CC(C)Nc1nc(Cl)nc(Cl)c1[N+](=O)[O-]`, the melting point came to 65 °C.

`N#CC(C#N)=CNc1cc(C(F)(F)F)ccc1Cl` displayed a melting point of 166 to 169 °C.

Turning to `CCOC(=O)c1c2c(n(CC(N)=O)c1C)C(=O)C(=O)c1ccc(Br)cc1-2`, the melting point is more than 250 °C.

The compound `NC(=O)c1c(C(F)(F)F)ccc(Cl)c1F` showed a melting point of 123 to 125 °C.

`O=C(Nc1ccc(S(=O)(=O)N2CCC(CNC[C@H](O)COc3ccc(O)cc3)CC2)cc1)Nc1ccccn1` returned a melting point of 189 °C.

`COc1ccc(C(=O)Nc2ccc3ccc(Cl)nc3n2)cc1OC` returned a melting point of 196 °C.

Compound `COCc1cn2c(C)c(C)nc2c2c1C(=O)[C@H](O)[C@@H](c1ccccc1)N2` had a melting point of 206 to 208 °C.

The compound `C(=Cc1ccc(-c2ccccc2)cc1)c1ccccc1` showed a melting point of 224 °C.

For `CCOC(=O)C1=C(C)NC(C)=C(C(=O)OC)C1c1ccc(SC)cc1` (stereo not drawn), the melting point was 163 °C.
